In ChEMBL document CHEMBL5331088, “Design and synthesis of novel halogen rich salicylanilides as potential antileishmanial agents” (Eur J Med Chem, 2023):

Experiments:
[1] = Selectivity index, ratio of CC50 for cytotoxicity against African green monkey Vero cells to IC50 for antileishmanial activity against Leishmania donovani amastigotes infected in J774.A1 macrophage; type: toxicity, cell-based; conditions: read-out: Ratio CC50/IC50
[2] = Cytotoxicity against African green monkey Vero cells assessed as reduction in cell viability by MTT assay; type: toxicity, cell-based; conditions: chlorocebus sabaeus
[3] = tested on: Leishmania donovani; experiment: Antileishmanial activity against Leishmania donovani amastigotes infected in J774.A1 macrophage assessed as inhibition of parasite growth by luciferase assay; type: functional, organism-based
[4] = Cytotoxicity against mouse J774A.1 cells assessed as reduction in cell viability by MTT assay; type: toxicity, cell-based, J774.A1
[5] = Selectivity index, ratio of CC50 for cytotoxicity against mouse J774.A1 cells to IC50 for antileishmanial activity against Leishmania donovani amastigotes infected in J774.A1 macrophage; type: toxicity, cell-based; conditions: read-out: Ratio CC50/IC50
[6] = tested on: Leishmania donovani; experiment: Antileishmanial activity against Leishmania donovani amastigotes infected in golden hamster model assessed as inhibition of splenic parasite burden at 50 mg/kg,ip for 5 consecutive days measured after 28 days of post treatment; type: functional; conditions: for inhibition in vivo at 50 mg/kg: 672 h, time 28 day
[7] = tested on: Leishmania donovani; experiment: Antileishmanial activity against Leishmania donovani amastigotes infected in golden hamster model assessed as inhibition of splenic parasite burden at 50 mg/kg,ip for 5 consecutive days measured after 7 days of post treatment; type: functional; conditions: for inhibition in vivo at 50 mg/kg: 168 h, time 7 day
[8] = Leishmania donovani, J774.A1, read-out: IC50

Row | Compound | selectivity ratio [1] | CC50 [2] [µM] | IC50 [3, 8] [µM] | CC50 [4] [µM] | selectivity ratio [5] | IC50 [3] | inhibition in vivo at 50 mg/kg [6] [%] | inhibition in vivo at 50 mg/kg [7] [%] | inhibition ([6]; time 28.0 day) [%] | inhibition ([7]; time 7.0 day) [%]
1 | O=C(Nc1cc(Cl)cc(Cl)c1)c1cc(Cl)ccc1O | 1.69 | 6.49 | 3.83 | 38.8 | 10.1 |  |  |  |  | 
2 | O=C(Nc1ccc(F)cc1[N+](=O)[O-])c1ccccc1O | 8.73 | 65.2 | 7.47 | 41.1 | 5.5 |  |  |  |  | 
3 | O=C(Nc1ccc([N+](=O)[O-])cc1Cl)c1cccc(Cl)c1 |  |  |  |  |  | Not Active |  |  |  | 
4 | O=C(Nc1ccccc1F)c1cc(Cl)ccc1O | 3.06 | 12.1 | 3.95 | 44 | 11.1 |  |  |  |  | 
5 | O=C(Nc1ccc(Cl)c(C(F)(F)F)c1)c1ccccc1O |  |  |  |  |  | Not Active |  |  |  | 
6 | O=C(Nc1ccc(F)c(F)c1)c1ccccc1O | 6.17 | 45.4 | 7.36 | 43.9 | 5.96 |  |  |  |  | 
7 | O=C(Nc1ccccc1)c1ccccc1O [SALICYLANILIDE] |  |  |  |  |  | Not Active |  |  |  | 
8 | O=C(Nc1ccc(F)c(Cl)c1)c1cc(Cl)ccc1O | 5.02 | 14.5 | 2.89 | 52.4 | 18.1 |  | 16.5 | 25.1 |  | 
9 | O=C(Nc1ccc(Cl)cc1)c1cc(Cl)ccc1O | 7.8 | 16.3 | 2.09 | 39 | 18.7 |  | 65.2 | 63.1 |  | 
10 | O=C(Nc1ccc(F)cc1)c1cc(Cl)ccc1O |  |  |  |  |  | Not Active |  |  |  | 
11 | O=C(Nc1ccc([N+](=O)[O-])cc1Cl)c1ccccc1O | 2.23 | 7.29 | 3.27 | 42.1 | 12.9 |  |  |  |  | 
12 | Sodium stibogluconate |  |  |  |  |  |  |  |  | 85.4 | 81.4
13 | O=C(Nc1cc(Cl)cc(Cl)c1)c1ccccc1O | 0.89 | 7.09 | 7.97 | 42.2 | 5.3 |  |  |  |  | 
14 | O=C(Nc1ccc([N+](=O)[O-])cc1Cl)c1ccccc1 |  |  |  |  |  | Not Active |  |  |  | 
15 | O=C(Nc1ccc([N+](=O)[O-])cc1F)c1cc(Cl)ccc1O | 0.81 | 3.23 | 3.98 | 43.1 | 10.8 |  |  |  |  | 
16 | O=C(Nc1ccc(F)c(F)c1)c1cc(Cl)ccc1O | 2.99 | 10.6 | 3.54 | 51.2 | 14.5 |  |  |  |  | 
17 | O=C(Nc1ccc(F)cc1[N+](=O)[O-])c1cc(Cl)ccc1O | 5.65 | 21.9 | 3.88 | 49.6 | 12.8 |  |  |  |  | 

Row | Compound | selectivity ratio [1] | CC50 [2] [µM] | IC50 [3, 8] [µM] | CC50 [4] [µM] | selectivity ratio [5] | IC50 [3] | inhibition in vivo at 50 mg/kg [6] [%] | inhibition in vivo at 50 mg/kg [7] [%] | inhibition ([6]; time 28.0 day) [%] | inhibition ([7]; time 7.0 day) [%]
18 | CCCCCCCCCCCCCCCCOP(=O)([O-])OCC[N+](C)(C)C [MILTEFOSINE] | 5.6 | 51.8 | 9.25 | 53.3 | 5.76 |  |  |  |  | 
19 | O=C(Nc1ccccc1)c1cccc(Cl)c1 |  |  |  |  |  | Not Active |  |  |  | 
20 | O=C(Nc1ccc(Cl)c(C(F)(F)F)c1)c1cc(Cl)ccc1O | 1.08 | 4.31 | 4 | 52.4 | 13.1 |  |  |  |  | 
21 | O=C(Nc1ccc(Br)cc1)c1cc(Cl)ccc1O | 2.64 | 10.1 | 3.83 | 50.8 | 13.3 |  |  |  |  | 
22 | O=C(Nc1cccc(C(F)(F)F)c1)c1cc(Cl)ccc1O |  | 3.17 | 3.47 |  |  |  |  |  |  | 
23 | O=C(Nc1ccc(Br)c(C(F)(F)F)c1)c1ccccc1O | 1.13 | 4.33 | 3.82 | 44.2 | 11.6 |  |  |  |  | 
24 | O=C(Nc1ccc([N+](=O)[O-])cc1Cl)c1cc(Cl)ccc1O [NICLOSAMIDE] | 0.61 | 3.06 | 3.68 | 42.1 | 11.4 |  |  |  |  | 
25 | O=C(Nc1cc(Cl)cc(Cl)c1O)c1c(O)c(Cl)cc(Cl)c1Cl [OXYCLOZANIDE] | 31.2 | 156 | 7.71 | 42.4 | 5.49 |  |  |  |  | 
26 | O=C(Nc1ccc([N+](=O)[O-])cc1F)c1ccccc1O | 2.89 | 11.7 | 4.06 | 42.8 | 10.5 |  |  |  |  | 
27 | O=C(Nc1ccccc1F)c1ccccc1O |  |  |  |  |  | Not Active |  |  |  | 
28 | O=C(Nc1ccccc1Cl)c1cc(Cl)ccc1O | 5.02 | 13.2 | 2.62 | 46.5 | 17.7 |  |  |  |  | 
29 | O=C(Nc1cccc(Cl)c1)c1cc(Cl)ccc1O | 3 | 13.9 | 4.62 | 50.5 | 10.9 |  |  |  |  | 
30 | O=C(Nc1ccccc1)c1ccccc1 [N-PHENYLBENZAMIDE] |  |  |  |  |  | Not Active |  |  |  | 
31 | O=C(Nc1ccc(F)c(Cl)c1)c1ccccc1O |  |  |  |  |  | Not Active |  |  |  | 
32 | O=C(Nc1ccccc1)c1cc(Cl)ccc1O |  |  |  |  |  | Not Active |  |  |  | 
33 | O=C(Nc1ccc(F)cc1)c1ccccc1O |  |  |  |  |  | Not Active |  |  |  | 
34 | O=C(Nc1ccc(Br)c(C(F)(F)F)c1)c1cc(Cl)ccc1O | 0.72 | 2.54 | 3.5 | 46.6 | 13.3 |  |  |  |  | 
